Usually Ki stands for the equilibrium dissociation constant of an inhibitor or competing ligand from its target. Low values mean tighter binding, high ones weaker binding. The IC50 is the midpoint of a concentration-inhibition curve. Low readings indicate inhibition by little substance, high ones a need for much substance.

For the test, the target named is T1, Tissue alpha-L-fucosidase (Bos taurus, UniProt Q2KIM0).
T1 sequence (Q2KIM0 whole entry): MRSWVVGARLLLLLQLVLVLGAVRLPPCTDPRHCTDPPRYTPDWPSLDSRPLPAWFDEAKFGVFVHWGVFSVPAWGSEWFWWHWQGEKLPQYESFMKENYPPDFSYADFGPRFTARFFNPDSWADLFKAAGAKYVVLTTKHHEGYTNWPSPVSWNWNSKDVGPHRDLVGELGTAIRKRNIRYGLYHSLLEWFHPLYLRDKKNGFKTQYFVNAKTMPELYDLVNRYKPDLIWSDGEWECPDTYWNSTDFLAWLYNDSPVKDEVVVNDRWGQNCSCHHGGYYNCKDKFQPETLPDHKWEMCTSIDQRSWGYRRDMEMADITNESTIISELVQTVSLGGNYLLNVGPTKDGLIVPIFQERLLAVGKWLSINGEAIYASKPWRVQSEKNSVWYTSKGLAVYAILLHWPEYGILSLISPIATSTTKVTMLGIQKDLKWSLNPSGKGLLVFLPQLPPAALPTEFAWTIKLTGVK
Description: Inhibition of bovine alpha-L-fucosidase.
As to `C[C@H]1N[C@@H](S(=O)(=O)O)[C@H](O)[C@@H](O)[C@H]1O`, the inhibitory constant (Ki) amounted to 13000 nM.
Same read-out and setting: to `C[C@H]1NC(O)[C@H](O)[C@@H](O)[C@H]1O` (some centres not stated) belongs 3000 nM.
For the compound `C[C@H]1NC[C@H](O)[C@@H](O)[C@H]1O`, affinity was put at a Ki of 660000 nM.
In turn, `C[C@@H]1NC(O)[C@@H](O)[C@H](O)[C@@H]1O` (some centres not stated) returned a Ki of 1 nM.
The compound `C[C@@H]1N[C@H](S(=O)(=O)O)[C@@H](O)[C@H](O)[C@@H]1O` returned a Ki of 1 nM.
Turning to `C[C@@H]1NC[C@@H](O)[C@H](O)[C@@H]1O` [DEOXYFUCONOJIRIMYCIN], the IC50 came out at 5 nM and the affinity corresponds to a Ki of 3 nM.

Source of the values: ChEMBL document CHEMBL1138167, “Asymmetric synthesis of the L-fuco-nojirimycin, a nanomolar alpha-L-fucosidase inhibitor” (Bioorg Med Chem Lett, 2006).
